Measured values: publication PMC7690448, “Generation of a hTERT-Immortalized Human Sertoli Cell Model to Study Transporter Dynamics at the Blood-Testis Barrier” (Pharmaceutics, 2020)

Biological target: T1, ENT1 (Homo sapiens, UniProt Q99808)
T1 construct: gene SLC29A1
T1 sequence (Q99808 2-456): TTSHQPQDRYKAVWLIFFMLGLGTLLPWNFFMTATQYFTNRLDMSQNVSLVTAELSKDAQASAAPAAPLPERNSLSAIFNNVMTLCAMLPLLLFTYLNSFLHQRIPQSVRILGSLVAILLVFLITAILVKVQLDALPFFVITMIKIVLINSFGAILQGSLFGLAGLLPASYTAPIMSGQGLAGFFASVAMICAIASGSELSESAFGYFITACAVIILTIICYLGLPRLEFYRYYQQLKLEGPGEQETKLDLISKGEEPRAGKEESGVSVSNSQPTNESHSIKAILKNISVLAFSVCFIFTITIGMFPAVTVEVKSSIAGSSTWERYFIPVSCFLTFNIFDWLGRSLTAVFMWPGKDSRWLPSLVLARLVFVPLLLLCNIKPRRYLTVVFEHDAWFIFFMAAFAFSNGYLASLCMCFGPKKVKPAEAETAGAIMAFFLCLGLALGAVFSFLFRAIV
Assay: NBMPR-sensitive [3H] uridine uptake in primary human Sertoli cells and hT-SerCs (endogenous ENT1)
Type: cell-based

O=c1ccn([C@@H]2O[C@H](CO)[C@@H](O)[C@H]2O)c(=O)[nH]1 [uridine]
NBMPR-sensitive [3H] uridine uptake in primary human Sertoli cells and hT-SerCs: These data suggest that uridine uptake into both cells is primarily mediated by ENT1 with minimal contribution by ENT2.
